Measurements taken from patent US20120196858A1, “METHOD OF PROMOTING APOPTOSIS AND INHIBITING METASTASIS” (Poniard Pharmaceuticals ,Inc., priority 2009, published 2012).

Experiments:
4T1 cells = assay: Soft agar colony growth and apoptosis assay; assay type: cell-based, murine
Experimental: (§1) Anchorage-dependent, spheroid, and soft agar cell growth assays: Cells (2×10^5) were plated per 35 mm well under adherent (tissue culture-treated) and non-adherent conditions (poly-HEMA-coated) in 6-well plates (Costar) in growth media. Between 24 and 168 h, all cells were collected, a single cell suspension was prepared by limited trypsin-EDTA treatment, and viable cells were enumerated by trypan blue staining and counting (ViCell XR, Beckman). For spheroid area determination, cells were imaged after 72 h in phase contrast using an Olympus IX51 microscope. Area was calculated using Image J software (version 1.43). For soft agar assays, 48-well plates were coated with a 1:4 mix of 2% agar (EM Science) in 0.2 ml growth media (bottom layer). 5×10^4 cells were plated per well (in triplicate) in a mixture of 0.3% agar in 0.2 ml growth media (top layer). […] After 10 days, colonies were imaged in phase contrast, enumerated by counting 9 fields (3 fields per well), and total area determined using Image J. For all analyses, experimental points were performed in triplicate and were experiments were repeated at least two times.
Cell pellets were resuspended in 300 p. 1 of PBS containing propidium iodide (PI) (10 μg/ml), DNAse-free RNAse (100 μg/ml, Qiagen), and then incubated at 37° C. with agitation for 1 h. Samples were analyzed by flow cytometry (FACSCalibur, Becton-Dickinson) and cell cycle analyses were performed by ModFit LT3.2 software (Verity software house). Hypodiploid DNA content as a measure of cell apoptosis was detected by PI staining as described ^29. […] Quadrant gates were positioned based on cell autofluorescence (negative) staurosporine-treated (positive) controls. Apoptosis was calculated to be the percent of annexin V-positive cells. In the soft agar assays, apoptosis was quantified by visual inspection of at least 200 cells and was defined as the appearance of membrane blebbing or cell shrinkage. Apoptosis was also detected by appearance of cleaved caspase-3 antibody reactivity in protein lysates by immunoblotting.

[1] = test system: interleukin-6 (IL-6) production in 4T1 cells; assay: IL-6 ELISA after TNFα stimulation; assay type: cell-based, murine; conditions: 0.25 to 1.0 μM; TNFα 10 ng/ml, 24 h
Experimental: After 1 h, recombinant tumor necrosis factor-α (TNFα eBioScience) was added (10 ng/ml) and after 24 h, IL-6 levels in conditioned media were measured using anti-mouse IL-6 ELISA kit (eBioScience).

[2] = test system: ID8 ovarian carcinoma cells; assay: ID8 suspended spheroid cell growth; assay type: cell-based, murine
Experimental: as §1, with “Between 24 and 168 h, all cells were collected, a single cell suspension was prepared by limited trypsin-EDTA treatment, and viable cells were enumerated by trypan blue staining and counting (ViCell XR, Beckman).” left out

[3] = test system: FAK and p130Cas phosphorylation in 4T1 tumors; assay: Pharmacodynamic (PD) evaluation in subcutaneous 4T1 tumors, single i.p. injection; assay type: in vivo, Balb/c mice; conditions: for maximal plasma levels: single injection
4T1 tumors = assay: Subcutaneous mCherry 4T1 tumor growth in BALB/c mice; assay type: in vivo
Experimental: Detection of apoptosis in tumors: Fresh tumors were snap-frozen in Optimal Cutting Temperature (OCT) compound (Tissue Tek), thin sectioned ([…]) using a cryomicrotome (Leica 3050S) and mounted onto glass slides. Sections were fixed with 3% paraformaldehyde, permeabilized in PBS containing 0.1% Triton for 3 min, and blocked with 8% goat serum in PBS for 60 min at RT. For activated caspase-3 detection, sections were incubated with cleaved caspase-3 antibody (1:200 diluted in 2% goat serum in PBS) for 18 h at 4° C., washed with PBS, and incubated with fluorescein isothiocyanate conjugated anti-rabbit and TOPRO-3 (blue) for DNA detection. Sections were imaged on a Nikon Eclipse C1 confocal microscope with a 1.4 NA 60× oil objective, with a 30 μm pinhole setting, and analyzed using EZ-C1 3.50 software (Nikon). Tumor apoptosis was also measured by terminal deoxynucleotidyl transferase dUTP nick end labeling (TUNEL) staining using the tetramethylrhodamine (TMR) kit as per the manufacturer's instructions (Roche). Bright field and fluorescent images of whole tumor sections were obtained using Zeiss M2-Bio Stereo microscope equipped with INFINITY1-3C: digital color camera and a 4× objective.
Mouse tumor studies: Six to eight week old female C57B16 and BALB/c mice were obtained from Harlan Laboratories (Indianapolis, Ind.) and housed in pathogen-free conditions, according to the guidelines of the Association for the Assessment and Accreditation for Laboratory Animal Care, International. All in vivo studies were carried out under an approved institutional experimental animal care and use protocol. Growing tumor cells were harvested by limited trypsinization, washed in PBS, and counted using a ViCell XR (Beckman) prior to injection. Cell viability as measured by trypan blue exclusion was >95%. For subcutaneous tumor growth, 1×10^6 mCherry-labeled 4T1 cells in 100 μl PBS were injected into the hindflank of Balb/C mice. […] Control animals received PEG400:PBS injections and at 13 days, tumors were imaged in situ using an Olympus OV100 Intravital Fluorescence Molecular Imaging System, tumors were excised and weighed, half was frozen in OCT, and half was solubilized in protein lysis buffer for FAK phosphorylation analyses. For ID8 ovarian carcinoma tumor growth, 0.8 mL of 1×10^7 ID8 cells in PBS was intraperitoneal injected into C57B16 mice. […] Administration continued ad libitum for 30 days after which mice were euthanized, ascites fluid collected, cells obtained by centrifugation (2000 rpm for 5 min), cell volume measured by pipet, and then solubilized in protein lysis buffer for immunoblotting analyses.

CNC(=O)c1ccccc1Nc1cc(Nc2ccc(N3CCOCC3)cc2OC)ncc1C(F)(F)F [PND-1186]
4T1 cell apoptosis (membrane blebbing and cell shrinkage) (4T1 cells; 0.2 μM, soft agar): > 50%
total number and size of soft agar colonies (4T1 cells; 10 days, dose-dependent): inhibited both the total number and size
inhibition at 0.2 µM (4T1 cells; Mus musculus, 4T1, 240 h, 0.2 μM, 10 days, read-out: inhibition of soft agar colony size): 77%
TNFα-triggered IL-6 release [1]: inhibited IL-6 release in a dose-dependent manner
ID8 cell number ([2]; 0.1, 0.4, and 1.0 μM, 72 h, suspended spheroids): significantly inhibited ID8 cell number
viable ID8 cells ([2]; after 15 days): dramatic reduction in viable cells
duration of tumor FAK pY397 inhibition ([3]; 30 mg/kg i.p.): 3 to 6 h
maximal PND-1186 in tumors ([3]; 30 mg/kg i.p.): 0.75 µg/g
time to maximal PND-1186 in tumors ([3]; 30 mg/kg i.p.): ≤ 1 h
time to maximal plasma levels ([3]; 30 mg/kg i.p.): ≤ 15 min
plasma levels at 12 h ([3]; 30 mg/kg i.p., 12 h): 0.1 µM
tumor FAK pY397 phosphorylation at 12 h ([3]; 30 mg/kg i.p., 12 h): not significantly inhibited
tumor PND-1186 levels by 12 h ([3]; 30 mg/kg i.p., 12 h): 0.04 µg/g
maximal plasma levels ([3]; 30 mg/kg i.p.): 35 µM
time to maximal PND-1186 in tumors ([3]; 100 mg/kg i.p.): ≤ 1 h
time to maximal plasma levels ([3]; 100 mg/kg i.p.): ≤ 30 min
plasma levels at 12 h ([3]; 100 mg/kg i.p., 12 h): 1.1 µM
p130Cas Tyr-410 phosphorylation (pY410Cas) in tumors ([3]; 100 mg/kg i.p., by 3 h): significantly reduced p130Cas Tyr-410 phosphorylation
sustained inhibition of tumor FAK Tyr-397 phosphorylation ([3]; 100 mg/kg i.p., for 12 h): > 60%
maximal plasma levels ([3]; 100 mg/kg i.p.): 117 µM
maximal PND-1186 in tumors ([3]; 100 mg/kg i.p., maintained up to 12 h): 16.1 µg/g
final tumor weight (4T1 tumors; 30 mg/kg b.i.d., 5 days): slightly reduced final tumor weight but was not significantly different
cleaved caspase-3 staining in tumors (4T1 tumors; 100 mg/kg): elevated cleaved caspase-3 staining
reduction of final tumor weight (4T1 tumors; 100 mg/kg b.i.d., 5 days): 2 fold
tumor TUNEL staining (4T1 tumors; 30 and 100 mg/kg b.i.d., vs vehicle): significantly increased tumor TUNEL staining
